ChEMBL document CHEMBL1201862, “PubChem BioAssay data set” (2004)
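Dose response: 5 concentrations. Exposure: 48 h. Format: 96-well plates. Endpoint: linear interpolation; highest concentration if not reached. Here, GI50 denotes the concentration required for 50% inhibition of growth.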 Calls of active or inactive are those of the source. Rule as the data show it: active = GI50 up to about 1.1 µM and inactive = higher.

Tests used:
Test in all cases: inhibition of tumour cell growth, NCI panel, 48 h
[1] = tested on: ACHN
[2] = tested on: CCRF-CEM
[3] = tested on: HCT-15
[4] = tested on: HL-60
[5] = tested on: IGROV-1
[6] = tested on: LOX IMVI
[7] = tested on: MDA-N
[8] = tested on: MOLT-4
[9] = tested on: NCI-H23
[10] = tested on: NCI/ADR-RES
[11] = tested on: OVCAR-8
[12] = tested on: PC-3
[13] = tested on: RPMI-8226
[14] = tested on: SK-MEL-5
[15] = tested on: SK-OV-3
[16] = tested on: SN12C
[17] = tested on: SNB-75
[18] = tested on: T47D
[19] = tested on: U-251
[20] = tested on: UACC-257

SMILES | GI50 [1] | GI50 [2] | GI50 [3] [µM] | GI50 [4] | GI50 [5] | GI50 [6] | GI50 [7] | GI50 [8] | GI50 [9] | GI50 [10] | GI50 [11] | GI50 [12] | GI50 [13] | GI50 [14] | GI50 [15] | GI50 [16] | GI50 [17] | GI50 [18] | GI50 [19] | GI50 [20]
N#Cc1cc(-c2nc3c(F)cccc3s2)ccc1N | > 100 µM (inactive) | 85.5 µM (inactive) | > 100 | > 100 µM (inactive) | 6.1 µM (inactive) | > 100 µM (inactive) | 47.8 µM (inactive) | > 100 µM (inactive) | > 100 µM (inactive) | > 100 µM (inactive) | > 100 µM (inactive) | > 100 µM (inactive) | > 100 µM (inactive) | 56.4 µM (inactive) | > 100 µM (inactive) | > 100 µM (inactive) | > 100 µM (inactive) | 0.912 µM (active) | > 100 µM (inactive) | > 100 µM (inactive)
O=[N+]([O-])c1cccc(CSc2nc(O)c3nc[nH]c3n2)c1 | > 100 µM (inactive) | 9.46 µM (inactive) | > 100 | > 100 µM (inactive) | > 100 µM (inactive) | > 100 µM (inactive) | > 100 µM (inactive) | > 100 µM (inactive) | > 100 µM (inactive) | > 100 µM (inactive) | > 100 µM (inactive) | > 100 µM (inactive) | > 100 µM (inactive) | > 100 µM (inactive) | > 100 µM (inactive) | > 100 µM (inactive) | > 100 µM (inactive) | > 100 µM (inactive) | > 100 µM (inactive) | > 100 µM (inactive)
NC(CCC(=O)O)C(=O)N1CCN(c2nc(N3CCCC3)c3nc(Cl)c(NCc4ccccc4)nc3n2)CC1 (stereo not given) | 15.1 µM (inactive) | 7.19 µM (inactive) | 14 | 7.13 µM (inactive) | 21.2 µM (inactive) | 14.6 µM (inactive) | 10.1 µM (inactive) | 7.53 µM (inactive) | 15.4 µM (inactive) | 20.8 µM (inactive) | 15.6 µM (inactive) | 13.3 µM (inactive) | 5.79 µM (inactive) | 8.04 µM (inactive) | 18 µM (inactive) | 15.8 µM (inactive) | 12 µM (inactive) | 6.64 µM (inactive) | 13.8 µM (inactive) | 14.5 µM (inactive)
CC(=O)Nc1n[n+]([O-])c2cc(C)ccc2[n+]1[O-] | 2.33 µM (inactive) | 2.05 µM (inactive) | 1.7 | 1.92 µM (inactive) | 1.48 µM (inactive) | 2.4 µM (inactive) | 3.56 µM (inactive) | 1.49 µM (inactive) | 2.19 µM (inactive) | 5.79 µM (inactive) | 2.96 µM (inactive) | 1.81 µM (inactive) | 2.83 µM (inactive) | 1.51 µM (inactive) | 5.86 µM (inactive) | 3.05 µM (inactive) | 2.88 µM (inactive) | 2.34 µM (inactive) | 2.92 µM (inactive) | 4.78 µM (inactive)
Clc1nc2c(-c3cccs3)ncnc2n1Cc1ccccc1 | 2 µM (inactive) | > 68.1 µM (inactive) | 32.1 | 24.5 µM (inactive) | 29.6 µM (inactive) | > 86.9 µM (inactive) | 42.6 µM (inactive) | 37.5 µM (inactive) | 46.1 µM (inactive) | 46.3 µM (inactive) | 49.9 µM (inactive) | 26.2 µM (inactive) | 3.58 µM (inactive) | 24.9 µM (inactive) | 38.9 µM (inactive) | 35.8 µM (inactive) | 21.3 µM (inactive) | 10.1 µM (inactive) | 38.5 µM (inactive) | 21.2 µM (inactive)
O=C(O)[C@H](CCC[C@H]1C(=O)O[C@H](c2ccccc2)[C@H](c2ccccc2)N1C(=O)OCc1ccccc1)N[C@@H](c1ccccc1)[C@H](O)c1ccccc1 | > 100 µM (inactive) | 20 µM (inactive) | > 100 | 17.4 µM (inactive) | 42.8 µM (inactive) | 22.9 µM (inactive) | 21.7 µM (inactive) | 24.3 µM (inactive) | 28.4 µM (inactive) | > 100 µM (inactive) | 20.5 µM (inactive) | 37.1 µM (inactive) | 22.4 µM (inactive) | 18.5 µM (inactive) | 61.8 µM (inactive) | 20.7 µM (inactive) | 17 µM (inactive) | 43.3 µM (inactive) | 16 µM (inactive) | 39.7 µM (inactive)
Cc1ccc(NC(Nc2ccc(C)cc2C)=C(/C=C(\Cl)[N+](=O)[O-])[N+](=O)[O-])c(C)c1 | 2.97 µM (inactive) | 0.301 µM (active) | 2.92 | 0.592 µM (active) | 6.04 µM (inactive) | 1.64 µM (inactive) | 3.37 µM (inactive) | 1.53 µM (inactive) | 5.94 µM (inactive) | 17.1 µM (inactive) | 2.81 µM (inactive) | 7.03 µM (inactive) | 1.55 µM (inactive) | 5.9 µM (inactive) | 5.18 µM (inactive) | 4.53 µM (inactive) | 1.11 µM (active) | 1.72 µM (inactive) | 11.5 µM (inactive) | 4.81 µM (inactive)
COc1ccc(C2C(Cl)C(=O)N2NC(=O)c2ccc(N)cc2)cc1OC (stereo not given) | 13.7 µM (inactive) | 1.71 µM (inactive) | 7.46 | 1.64 µM (inactive) | 1.36 µM (inactive) | 1.5 µM (inactive) | 9.46 µM (inactive) | 1.96 µM (inactive) | 6.08 µM (inactive) | 1.97 µM (inactive) | 4.08 µM (inactive) | 12.9 µM (inactive) | 3.1 µM (inactive) | 12.2 µM (inactive) | 18.8 µM (inactive) | 9.95 µM (inactive) | 15.6 µM (inactive) | 11.1 µM (inactive) | 2.72 µM (inactive) | 14.5 µM (inactive)
COC(=O)c1ccc(NCC2=CC(=O)c3ccccc3C2=O)cc1 | 13.9 µM (inactive) | 2.04 µM (inactive) | 14.5 | 3.1 µM (inactive) | 12.2 µM (inactive) | 8.18 µM (inactive) | 9.23 µM (inactive) | 3.01 µM (inactive) | 14.5 µM (inactive) | 27.5 µM (inactive) | 29.8 µM (inactive) | 14.3 µM (inactive) | 6.32 µM (inactive) | 11.7 µM (inactive) | 16.1 µM (inactive) | 21.8 µM (inactive) | 20.7 µM (inactive) | 12.2 µM (inactive) | 22.9 µM (inactive) | 14.3 µM (inactive)
COc1ccc2c(c1)/c(=C/C#N)c1c3ccccc3[n+](C)n21 | 9.38 µM (inactive) | 2.04 µM (inactive) | 20.1 | 3.05 µM (inactive) | 7.62 µM (inactive) | 5.97 µM (inactive) | 5.43 µM (inactive) | 3.3 µM (inactive) | 5.3 µM (inactive) | 18.4 µM (inactive) | 11.4 µM (inactive) | 2.8 µM (inactive) | 1.96 µM (inactive) | 6.62 µM (inactive) | 15.5 µM (inactive) | 7 µM (inactive) | 3.7 µM (inactive) | 2.51 µM (inactive) | 2.75 µM (inactive) | 6.14 µM (inactive)
COc1cccc2c1Cc1cc(-c3ccccc3)[n+](C)n1-2 | 19.2 µM (inactive) | 3.37 µM (inactive) | 31.3 | 4.06 µM (inactive) | 12.5 µM (inactive) | 10 µM (inactive) | 11.9 µM (inactive) | 2.92 µM (inactive) | 9.77 µM (inactive) | 84.7 µM (inactive) | 6.84 µM (inactive) | 11.4 µM (inactive) | 4.18 µM (inactive) | 8.89 µM (inactive) | 33.2 µM (inactive) | 8.85 µM (inactive) | 20 µM (inactive) | 3.4 µM (inactive) | 5.36 µM (inactive) | 3.58 µM (inactive)
COc1ccc(C2SC(C)C(=O)N2c2nc(-c3nc(-c4ccc(Cl)cc4)cs3)cs2)cc1 (stereo not given) | > 100 µM (inactive) | 85.3 µM (inactive) | > 100 | 94.4 µM (inactive) | > 100 µM (inactive) | > 100 µM (inactive) | > 100 µM (inactive) | 49.2 µM (inactive) | > 100 µM (inactive) | > 100 µM (inactive) | > 100 µM (inactive) | 66.8 µM (inactive) | > 100 µM (inactive) | > 100 µM (inactive) | > 100 µM (inactive) | > 100 µM (inactive) | > 100 µM (inactive) | 46.1 µM (inactive) | 84.7 µM (inactive) | > 100 µM (inactive)
COc1cc2c3cc1Oc1c(O)c(OC)cc4c1[C@H](Cc1ccc(cc1)Oc1cc(ccc1O)C[C@H]3N(C)CC2)N(C)CC4 | 19.4 µM (inactive) | 10.4 µM (inactive) | 9.29 | 6.68 µM (inactive) | 13.8 µM (inactive) | 4.94 µM (inactive) | 10.7 µM (inactive) | 8.41 µM (inactive) | 22.4 µM (inactive) | 24.5 µM (inactive) | 14.9 µM (inactive) | 8.51 µM (inactive) | 5.33 µM (inactive) | 7.33 µM (inactive) | 25.4 µM (inactive) | 4.17 µM (inactive) | 18.8 µM (inactive) | 17.9 µM (inactive) | 9.48 µM (inactive) | 15 µM (inactive)
CCN(CC)CCC(=O)c1ccc(C)cc1 | 20.6 µM (inactive) | 10.1 µM (inactive) | 18.7 | 24.5 µM (inactive) | 17.7 µM (inactive) | 29.9 µM (inactive) | 20.7 µM (inactive) | 18.5 µM (inactive) | 21.3 µM (inactive) | 25.5 µM (inactive) | 33.4 µM (inactive) | 54.7 µM (inactive) | 2.62 µM (inactive) | 13.1 µM (inactive) | > 100 µM (inactive) | 36.9 µM (inactive) | 11.5 µM (inactive) | 14.7 µM (inactive) | > 100 µM (inactive) | 17.2 µM (inactive)
